These compounds were tested against T1, human RXFP1 (Homo sapiens, UniProt Q9HBX9) (assay: RXFP1 cAMP assay (hRXFP1 HEK293 cAMP assay, HTRF)). Conditions: HEK293 cells stably expressing human RXFP1, 30 min at room temperature, read-out: cAMP hRXFP1 HEK293 Assay EC50.
T1 construct: expressed in transfected cells
T1 sequence (Q9HBX9 1-757): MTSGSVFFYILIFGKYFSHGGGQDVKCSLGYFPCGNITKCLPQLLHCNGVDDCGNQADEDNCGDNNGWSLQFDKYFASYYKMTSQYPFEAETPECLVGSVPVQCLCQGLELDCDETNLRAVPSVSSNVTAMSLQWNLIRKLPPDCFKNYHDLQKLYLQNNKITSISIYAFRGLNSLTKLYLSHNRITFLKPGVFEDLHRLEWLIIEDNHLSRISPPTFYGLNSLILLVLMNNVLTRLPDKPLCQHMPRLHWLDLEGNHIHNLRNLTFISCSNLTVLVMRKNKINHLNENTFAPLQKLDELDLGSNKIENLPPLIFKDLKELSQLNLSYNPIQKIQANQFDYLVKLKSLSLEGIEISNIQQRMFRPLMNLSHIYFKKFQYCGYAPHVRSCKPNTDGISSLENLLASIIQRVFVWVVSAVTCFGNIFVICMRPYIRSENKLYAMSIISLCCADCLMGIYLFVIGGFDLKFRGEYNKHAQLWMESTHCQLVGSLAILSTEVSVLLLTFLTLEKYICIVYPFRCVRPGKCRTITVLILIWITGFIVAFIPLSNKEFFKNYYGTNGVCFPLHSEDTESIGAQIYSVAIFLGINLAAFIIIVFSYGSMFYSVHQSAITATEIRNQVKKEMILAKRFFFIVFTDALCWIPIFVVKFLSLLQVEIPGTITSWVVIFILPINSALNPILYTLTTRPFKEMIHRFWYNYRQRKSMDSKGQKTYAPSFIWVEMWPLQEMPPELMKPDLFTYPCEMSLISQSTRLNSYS
Format: cell-based
Outline: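 Intracellular cAMP was read by HTRF, with potency fitted to a 4-parameter logistic curve. Compound exposure (0.010 nM–50 μM final, 2% DMSO) lasted 30 min at room temperature. Cells were hRXFP1-HEK293 at 1500 per well in IBMX-containing (0.5 mM) HEPES-buffered HBSS.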

| Compound | EC50 |
| --- | --- |
| COc1ccc(-c2cc(C(=O)Nc3nnn[nH]3)ccc2F)cc1C(=O)N[C@@H]1C2CCC(/C2=C/c2cnoc2)[C@@H]1C(=O)Nc1ccc(F)c(C(F)(F)F)c1 (stereo partly drawn) [Example 192] | 135 nM |
| COc1ccc(C2=NOC3CC(CO)CC23)cc1C(=O)N[C@H]1[C@@H](C(=O)Nc2ccc(F)c(C(F)(F)F)c2)[C@H]2CC[C@@H]1C2CC(F)(F)F (stereo partly drawn) [compound 550] | 34.9 nM |
| COc1ccc([C@@]2(O)CO[C@@H]3[C@@H](O)CO[C@@H]32)cc1C(=O)N[C@H]1[C@@H](C(=O)Nc2ccc(F)c(C(F)(F)F)c2)[C@H]2CC[C@@H]1/C2=C\C(F)(F)F [compound 713] | 1670 nM |
| COc1ccc(-c2ccc(C(=O)O)cc2F)cc1C(=O)N[C@@H]1C2CCC(/C2=C/c2ccccc2)[C@@H]1C(=O)Nc1ccc(F)c(C(F)(F)F)c1 (stereo partly drawn) [compound 169] | 44 nM |
| COc1ccc(C2=NOC(C3(O)CC3)C2)cc1C(=O)N[C@H]1[C@@H](C(=O)Nc2ccc(F)c(C(F)(F)F)c2)[C@H]2CC[C@@H]1/C2=C\C1CC1 (single isomer, unassigned) [compound 491] | 8.7 nM |
| COc1ccc(C2=NO[C@H]3CC(CO)C[C@@H]23)cc1C(=O)N[C@H]1[C@@H](C(=O)Nc2ccc(F)c(C(F)(F)F)c2)[C@H]2CC[C@@H]1/C2=C\CCC1CC1 (stereo partly drawn) [compound 824] | 2.9 nM |
| COc1ccc(C2=NOC3COCC23)cc1C(=O)N[C@H]1[C@@H](C(=O)N[C@H](C)C2(C)CCC2)[C@H]2CC[C@@H]1/C2=C\C1CC1 (stereo partly drawn) [compound 769] | 3.3 nM |
| COc1ccc(-c2cc(C(=O)NC(C)C)ccc2F)cc1C(=O)N[C@@H]1C2CCC(C2=C(C)C)[C@@H]1C(=O)Nc1ccc(F)c(C(F)(F)F)c1 (stereo partly drawn) [compound 153] | 140 nM |
| O=C(N[C@H]1[C@@H](C(=O)Nc2ccc(F)c(C(F)(F)F)c2)[C@H]2CC[C@@H]1/C2=C\C1CC1)c1cccc(C2=NOC3CC(O)CC23)c1 (stereo partly drawn) [compound 628] | 177 nM |
| COc1ccc(C2=NOC3COCC23)c(F)c1C(=O)N[C@H]1[C@@H](C(=O)Nc2ccc(F)c(C(F)(F)F)c2)[C@H]2CC[C@@H]1/C2=C\C1CC1 (single isomer, unassigned) [compound 513] | 16.5 nM |
| COc1ccc(-c2cc(C3OC(=O)N(C)C3=O)ccc2F)cc1C(=O)N[C@@H]1C2CCC(/C2=C/C2CC2)[C@@H]1C(=O)Nc1ccc(F)c(C(F)(F)F)c1 (stereo partly drawn) [compound 173] | 7 nM |
| CNC(=O)c1ccc(F)c(-c2ccc(OC)c(C(=O)N[C@H]3[C@@H](C(=O)Nc4ccc(F)c(C(F)(F)F)c4)[C@H]4CC[C@@H]3C4=C(C)C)c2)c1 [compound 151] | 240 nM |
| COc1ccc(-c2cc(C(F)F)ccc2F)cc1C(=O)N[C@@H]1C2CCC(/C2=C/C2CC2)[C@@H]1C(=O)Nc1ccc(F)c(C(F)(F)F)c1 (stereo partly drawn) [compound 280] | 12 nM |
| COc1ccc(C2=CCCNC2)cc1C(=O)N[C@@H]1C2CCC(C2=C(C)C)[C@@H]1C(=O)Nc1ccc(F)c(C(F)(F)F)c1 (stereo partly drawn) [Example 140] | 700 nM |
| COc1ccc(C2CN(C(=O)N3CCC(O)CC3)C2)cc1C(=O)N[C@H]1[C@@H](C(=O)Nc2ccc(F)c(C(F)(F)F)c2)[C@H]2CC[C@@H]1/C2=C\C1CC1 [compound 527] | 22.4 nM |
| COc1ccc(-c2ccc(CC(=O)O)cc2)cc1C(=O)N[C@@H]1C2CCC(/C2=C/c2cnoc2)[C@@H]1C(=O)Nc1ccc(F)c(C(F)(F)F)c1 (stereo partly drawn) [compound 188] | 20 nM |
| COc1ccc(Br)cc1C(=O)N[C@@H]1C2CCC(/C2=C/C(F)(F)F)[C@@H]1C(=O)Nc1ccc(F)c(C(F)(F)F)c1 (stereo partly drawn) [compound 292] | 1860 nM |
| COc1c(F)cc(C2=NOC3CC(CO)CC23)cc1C(=O)N[C@H]1[C@@H](C(=O)N[C@H](C)C2(C(F)(F)F)CC2)[C@H]2CC[C@@H]1/C2=C\C1CC1 (stereo partly drawn) [compound 869] | 1.4 nM |

| Compound | EC50 |
| --- | --- |
| COc1ccc(C2=NOC3CN(C(=O)OC(C)(C)C)CC23)cc1C(=O)N[C@@H]1C2CCC(/C2=C/C2CC2)[C@@H]1C(=O)Nc1ccc(F)c(C(F)(F)F)c1 (stereo partly drawn) [compound 435] | 49 nM |
| COc1ccc(-c2cc(C(=O)O)ccc2F)cc1C(=O)N[C@@H]1C2CCC(/C2=C/C2CC2)[C@@H]1C(=O)NC1CCOCC1 (stereo partly drawn) [compound 204] | 3200 nM |
| COc1ccc(C2=NOC3CN(CCO)CC23)cc1C(=O)N[C@H]1[C@@H](C(=O)Nc2ccc(F)c(C(F)(F)F)c2)[C@H]2CC[C@@H]1/C2=C\C1CC1 (single isomer, unassigned) [compound 455] | 2 nM |
| COc1ccc(-c2cc([C@H](O)C(F)(F)F)ccc2F)cc1C(=O)N[C@H]1[C@@H](C(=O)Nc2ccc(F)c(C(F)(F)F)c2)[C@H]2CC[C@@H]1/C2=C\C1CCCC1 [compound 920] | 2.4 nM |
| COc1cc(F)c(F)cc1C(=O)N[C@@H]1C2CCC(/C2=C/C=C/CCO)[C@@H]1C(=O)Nc1ccc(F)c(C(F)(F)F)c1 (stereo partly drawn) [compound 67] | 1700 nM |
| COc1ccc(-c2cc(C(=O)O)ccc2F)cc1C(=O)N[C@@H]1C2CCC(/C2=C/C2CC2)[C@@H]1C(=O)NC(C)c1cc(F)ccc1F (stereo partly drawn) [compound 307] | 958 nM |
| COc1ccc(-c2ccnc(C(F)F)c2)cc1C(=O)N[C@@H]1C2CCC(/C2=C/C2CC2)[C@@H]1C(=O)Nc1ccc(F)c(C(F)(F)F)c1 (stereo partly drawn) [compound 284] | 109 nM |
| O=C(N[C@H]1[C@@H](C(=O)Nc2ccc(F)c(C(F)(F)F)c2)[C@H]2CC[C@@H]1/C2=C\C1CC1)c1cc(C2=NOC3CC(CO)CC23)cc(F)c1OCC1CC1 (stereo partly drawn) [compound 794] | 3.2 nM |
| COc1ccc(C2=NOC(CC(C)(C)O)C2)cc1C(=O)N[C@H]1[C@@H](C(=O)Nc2ccc(F)c(C(F)(F)F)c2)[C@H]2CC[C@@H]1/C2=C\C1CC1 (single isomer, unassigned) [compound 528] | 22.4 nM |
| COc1ccc(C2=NOC3CC(C#N)CC23)cc1C(=O)N[C@H]1[C@@H](C(=O)Nc2ccc(F)c(C(F)(F)F)c2)[C@H]2CC[C@@H]1/C2=C\C1CC1 (stereo partly drawn) [compound 506] | 12.7 nM |
| CCc1cccc(/C=C2\C3CCC2[C@H](C(=O)Nc2ccc(F)c(C(F)(F)F)c2)[C@@H]3NC(=O)c2cc(F)c(F)cc2OC)c1 (stereo partly drawn) [compound 29] | 110 nM |
| COc1ccc(C2=NOC3C(O)CCC23)cc1C(=O)N[C@H]1[C@@H](C(=O)Nc2ccc(F)c(C(F)(F)F)c2)[C@H]2CC[C@@H]1/C2=C\C1CC1 (single isomer, unassigned) [compound 706] | 1300 nM |
| COc1ccc(-c2cc(C3=NOC4CC(CO)CC34)ccc2F)cc1C(=O)N[C@H]1[C@@H](C(=O)Nc2ccc(F)c(C(F)(F)F)c2)[C@H]2CC[C@@H]1/C2=C\C1CCCC1 (stereo partly drawn) [compound 949] | 3.6 nM |
| COc1c(F)cc(C2=NOC3CC(CO)CC23)cc1C(=O)N[C@H]1[C@@H](C(=O)Nc2ccc(F)c(C(F)(F)F)c2)[C@H]2CC[C@@H]1/C2=C\CCC(F)(F)F (stereo partly drawn) [compound 792] | 1.4 nM |
| COc1ccc(C2CCCN2C(=O)C(C)(C)O)cc1C(=O)N[C@@H]1C2CCC(C2=CC2CC2)[C@@H]1C(=O)Nc1ccc(F)c(C(F)(F)F)c1 (stereo partly drawn) [compound 671] | 451 nM |
| COc1ccc(C2=NOC(C(C)(C)O)C2)cc1C(=O)N[C@H]1[C@@H](C(=O)Nc2ccc(F)c(C(F)(F)F)c2)[C@H]2CC[C@@H]1/C2=C\C1CC1 (single isomer, unassigned) [compound 573] | 67.4 nM |
| COc1ccc(C2=NOC(CNC(=O)OC(C)(C)C)C2)cc1C(=O)N[C@@H]1C2CCC(/C2=C/C(F)(F)F)[C@@H]1C(=O)Nc1ccc(F)c(C(F)(F)F)c1 (stereo partly drawn) [compound 403] | 1390 nM |

Same assay, conditions: cAMP hRXFP1 HEK293 Assay EC50, HEK293 cells stably expressing human RXFP1, 30 min at room temperature

| Compound | EC50 |
| --- | --- |
| COc1ccc(-c2cc(C(=O)O)ccc2F)cc1C(=O)N[C@@H]1C2CCC(/C2=C/C2CC2)[C@@H]1C(=O)Nc1ccc(C#N)c(C(F)(F)F)c1 (stereo partly drawn) [compound 270] | 25 nM |

— patent US20250221966A1, “RXFP1 AGONISTS” (BRISTOL-MYERS SQUIBB COMPANY, priority 2021, published 2025)
